Tested on: Staphylococcus Aureus
Assay: In vivo osteomyelitis model (Staphylococcus Aureus injected to proximal tibia), radiograph and hematological analysis
Set-up: species or system Wistar albino rats
Details: rat osteomyelitis model
Description: Wistar albino rats were operated on, and osteomyelitis model was established by injecting Staphylococcus Aureus pathogen to the proximal tibia. In order to determined that the osteomyelitis model was formed, Xray (Radiograph) image was taken. The animals that were determined to have osteomyelitis, were separated into 3 groups, as the gelatin nanoparticle comprising gentamicin (I), free drug (II) and control (III) groups, and they were included in the treatment with 2-4 injections a weak. 100-300 μl, gelatin nanoparticle comprising gentamicin, free form (commercial gentamicin and physiological saline solution was injected intravenously into the tail vein of the groups I, II, and III respectively. On the 14th day following the commencement of treatment, a radiograph was taken in order to track the treatment process. Hematological analysis was carried out during the treatment and after the treatment. The lymphocyte reference range for rats was 1.4-9.4×10^3/μL. As a result of the haemogram carried out on healthy rats, the lymphocyte value was 7.4×10^3/μL.

For gentamicin [Free gentamicin], the “Lymphocyte number following 6 dose stherapy” value (intravenous, tail vein, after 6 doses, reference range 1.4-9.4, healthy rats 7.4) was 12.6 10^3/μL and the “Radiograph finding after therapy” value (radiograph following 6 doses of therapy, compared with image 14 days after model establishment) was “abscess was present, bone integrity was not yet formed and healing was only present on the periost”.

Source: patent US20220031605A1, “TARGETED DRUG DELIVERY SYSTEM TO BE USED IN TREATING OSTEOMYELITIS” (EGE UNIVERSITESI, priority 2018, published 2022)
